# According to patent EP1745781A1, “Combination of pyrazoline type cannabinoid receptor antagonist and statin” (LABORATORIOS DEL DR. ESTEVE, S.A., priority 2005, dated 2007):
# pKi: −log10 of the molar value.
# What was measured:
# [1] = target: T1, CB2-Receptor (Homo sapiens, UniProt P34972); test: In-vitro determination of affinity to CB2 receptor (radioligand [^3H]-CP55940); format: binding
# T1 construct: purchased Receptor Biology, Inc
# Experimental: (§1) I. In-vitro determination of affinity to CB1/CB2-Receptors
# (§2) The in-vitro determination of the affinity of the substituted pyrazoline compounds to CB1/CB2-Rezeptors is carried out as described in the publication of Ruth A. Ross, Heather C. Brockie et al., "Agonist-inverse agonist characterization at CB1 and CB2 cannabinoid receptors of L-759633. L759656 and AM630", British Journal of Pharmacology, 126, 665-672, (1999), whereby the transfected human CB1 and CB2 receptors of Receptor Biology, Inc. are used. The radioligand used for both receptors is [^3H]-CP55940. The respective parts of the description is hereby incorporated by reference and forms part of the present disclosure.
# [2] = test system: Male NMRI mice; test: Mouse tetrad model: hot plate analgesia; format: in vivo; settings: for Agonistic effect A: Hot-Plate test: 5 mg/kg i.v.; for Antagonistic Effect A: Hot-Plate test: 5 mg/kg i.v. prior to Win 55212-2 in a dose of 1.25mg/kg i.v.
# From the text: (§3) II. In-vivo bioassay system for determination of cannabinoid activity
# (§4) Substances with affinity for cannabinoid receptors are known to produce a wide range of pharmacological effects. It is also known that intravenous administration of a substance with affinity for cannabinoid receptors in mice produces analgesia , hypothermia, sedation and catalepsy. Individually, none of these effects can be considered as proof that a tested substance has affinity for cannabinoid-receptors, since all of these effects are common for various classes of centrally active agents. However, substances, which show all of these effects, i.e. substances that are active in this so-called tetrad model are considered to have affinity for the cannabinoid receptors. It has further been shown that cannabinoid receptor antagonists are higly effective in blocking the effects of a cannabinoid agonist in the mouse tetrad model.
# (§5) The tetrad model is described, for example, in the publication of A. C. Howlett et al, international Union of Pharmacology XXVII. Classification of Cannabinoid Receptors, Pharmacol Rev 54, 161-202 , 2002 and David R. Compton et al., "In-vivo Characterization of a Specific Cannabinoid Receptor Antagonist (SR141716A) :Inhibition of Tetrahydrocannbinol- induced Responses and Apparent Agonist Activity", J. Pharmacol. Exp. Ther. 277 , 2, 586-594, 1996. The corresponding parts of the description are hereby incorporated by reference. […]
# (§6) Before testing in the behavioral procedures given below, mice are acclimatized to the experimental setting. Pre-Treatment control values are determined for analgesia hot plate latency (in seconds), rectal temperature, sedation and catalepsy.
# (§7) In order to determine the agonistic activty of the substance to be tested, the mice are injected intravenously with the substance to be tested or the vehicle alone. 15 minutes after injection, latency in hot plate analgesia is measured. Rectal temperature, sedation and catalepsy are measured 20 minutes after injection.
# (§8) In order to determine the antagonistic activity the identical procedure is used as for the determination of the agonistic effects, but with the difference that the substance to be evaluated for its antagonistic activity is injectected 5 minutes before the intravenous injection of 1.25 mg/kg Win-55,212 a known cannabinoid-receptor agonist.
# The hot plate analgesia is determined according to the method described in Woolfe D. et al. "The evaluation of analgesic action of pethidine hydrochloride (Demerol)", J. Pharmacol. Exp. Ther. 80, 300-307,1944. […]
# The mice are placed on a hot plate (Harvard Analgesimeter) at 55 ± 0.5 °C until they show a painful sensation by licking their paws or jumping and the time for these sensations to occur is recorded. This reading is considered the basal value (B). […]
# [3] = test system: Male NMRI mice; test: Mouse tetrad model: hypothermia; format: in vivo; settings: for Agonistic effect B: Hypothermia: 5 mg/kg i.v.; for Antagonistic Effect B: Hypothermia: 5 mg/kg i.v. prior to Win 55212-2 in a dose of 1.25mg/kg i.v.
# From the text: as §3, §4
# as §5, with “1996.” for “1996. The corresponding parts of the description are hereby incorporated by reference.”
# as §6, §7, §8
# Hypothermia is determined according to the method described in David R. Compton et al. "In-vivo Characterization of a Specific Cannabinoid Receptor Antagonist (SR141716A) Inhibition of Tetrahydrocannbinol- induced Responses and Apparent Agonist Activity", J. Pharmacol Exp Ther. 277 , 2, 586-594, 1996. […]
# The base-line rectal temperatures are determined with a thermometer (Yello Springs Instruments Co., Panlabs) and a thermistor probe inserted to 25mm before the administration of the substance to be tested. […]
# [4] = test system: Male NMRI mice; test: Mouse tetrad model: catalepsy; format: in vivo; settings: for Agonistic effect C: Catalepsy: 5 mg/kg i.v.; for Antagonistic Effect C: Catalepsy: 5 mg/kg i.v. prior to Win 55212-2 in a dose of 1.25mg/kg i.v.
# From the text: as §3, §4
# as §5, with “1996.” for “1996. The corresponding parts of the description are hereby incorporated by reference.”
# as §6, §7, §8
# Catalepsy is determined according to the method described in Alpermann H. G. et al. "Pharmacological effets of Hoe 249: A new potential antidepressant", Drugs Dev. […]
# The cataleptic effect of the substance to be tested is evaluated according to the duration of catalepsy, whereby the animals are placed head downwards with their kinlegs upon the top of the wooden block. […]
# The percentage of catalepsy is determined according ot the following formula: %Catalepsy = arithmetic mean/6 × 100 [formula]
# [5] = test system: Male NMRI mice; test: Mouse tetrad model: sedation and ataxia; format: in vivo; settings: for Agonistic effect D: Sedation: 5 mg/kg i.v.; for Antagonistic Effect D: Sedation: 5 mg/kg i.v. prior to Win 55212-2 in a dose of 1.25mg/kg i.v.
# From the text: as §3, §4
# The tetrad model is described, for example, in the publication of A. C. Howlett et al, international Union of Pharmacology XXVII. Classification of Cannabinoid Receptors, Pharmacol Rev 54, 161-202 , 2002 and David R. Compton et al., "In-vivo Characterization of a Specific Cannabinoid Receptor Antagonist (SR141716A) :Inhibition of Tetrahydrocannbinol- induced Responses and Apparent Agonist Activity", J. Pharmacol. Exp. Ther. 277 , 2, 586-594, 1996. The corresponding parts of the description are hereby incorporated by reference.
# Male NMRI mice with a weight of 20-30 g (Harlan, Barcelona, Spain) are used in all of the following experiments.
# as §6, §7, §8
# Determination of sedation and ataxia
# Sedation and ataxia is determined according to the method described in Desmet L. K. C. et al. "Anticonvulsive properties of Cinarizine and Flunarizine in Rats and Mice", Arzneim. -Forsch. (Frug Res) 25, 9, 1975. […]
# The percentage of sedation is determined according to the formula: %of sedation = arithmetic mean/3 × 100 [formula]
# [6] = target: T2, CB1-Receptor (Homo sapiens, UniProt P21554); test: In-vitro determination of affinity to CB1 receptor (radioligand [^3H]-CP55940); format: binding
# T2 construct: purchased Receptor Biology, Inc
# Experimental: as §1, §2
# T1 sequence (P34972 whole entry): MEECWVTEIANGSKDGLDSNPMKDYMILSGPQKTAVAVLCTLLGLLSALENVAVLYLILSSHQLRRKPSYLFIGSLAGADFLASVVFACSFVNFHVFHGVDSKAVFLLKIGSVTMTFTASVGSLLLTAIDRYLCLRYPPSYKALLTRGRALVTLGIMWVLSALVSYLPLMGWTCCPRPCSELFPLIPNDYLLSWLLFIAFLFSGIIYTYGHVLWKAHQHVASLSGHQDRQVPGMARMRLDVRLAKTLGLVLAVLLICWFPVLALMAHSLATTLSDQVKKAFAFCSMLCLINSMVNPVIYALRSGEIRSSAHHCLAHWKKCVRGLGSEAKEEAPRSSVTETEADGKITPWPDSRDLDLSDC
# T2 sequence (P21554 whole entry): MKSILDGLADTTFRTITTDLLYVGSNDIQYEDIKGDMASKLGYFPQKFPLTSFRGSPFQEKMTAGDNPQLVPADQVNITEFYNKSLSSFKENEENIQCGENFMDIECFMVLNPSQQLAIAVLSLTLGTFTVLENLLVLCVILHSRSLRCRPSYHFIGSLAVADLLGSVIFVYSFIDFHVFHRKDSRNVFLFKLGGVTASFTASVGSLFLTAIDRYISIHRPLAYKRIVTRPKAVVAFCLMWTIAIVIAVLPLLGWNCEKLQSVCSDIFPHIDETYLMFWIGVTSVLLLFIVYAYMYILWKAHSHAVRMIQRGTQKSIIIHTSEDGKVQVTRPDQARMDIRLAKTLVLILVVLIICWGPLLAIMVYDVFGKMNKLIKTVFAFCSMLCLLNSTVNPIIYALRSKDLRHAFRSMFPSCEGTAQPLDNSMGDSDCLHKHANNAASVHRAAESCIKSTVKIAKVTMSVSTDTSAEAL
SMILES,pKi [1],Agonistic effect A: Hot-Plate test [2],Antagonistic Effect A: Hot-Plate test [2],Agonistic effect B: Hypothermia [3],Antagonistic Effect B: Hypothermia [3],Agonistic effect C: Catalepsy [4],Antagonistic Effect C: Catalepsy [4],Agonistic effect D: Sedation [5],Antagonistic Effect D: Sedation [5],pKi [6]
"O=C(C1=NN(c2ccc(Cl)cc2Cl)C(c2ccc(Cl)cc2)C1)N1CCCCC1 (stereo not shown) [Example 5, [5-(4-Chloro-phenyl)-1-(2,4-dichloro-phenyl)-4,5-dihydro-1H-pyrazol-3-yl]-piperidin-1-yl-methanone]",~6.00,0,50,50,40,0,20,0,20,
"O=C(NN1CCCCC1)C1=NN(c2ccc(Cl)cc2Cl)C(c2ccc(Cl)cc2)C1 (stereo not shown) [Example 1, N-piperidinyl-5-(4-chlorophenyl)-1-(2,4-dichlorophenyl)-4,5-dihydro-1H-pyrazole-3-carboxamide]",< 6.00,0,74,0,100,0,100,0,100,> 7.60
